The text below walks through data of patent publication US7994172B2, “[1H-pyrazolo[3, 4-D]pyrimidin-4-yl]-piperidine or -piperazine compounds as serine-theoronine kinase modulators (P70s6k, Atk1 and Atk2) for the treatment of immunological, inflammatory and proliferative diseases” (Exelixis, Inc., priority 2004, dated 2011).

What all share (type): biochemical
The target of test [1] is T1, human Akt1 kinase (kinase domain residues R144-A480, activated with PDK1) (Homo sapiens, UniProt P31749).
T1 construct: made in house
T1 sequence (P31749 144-480): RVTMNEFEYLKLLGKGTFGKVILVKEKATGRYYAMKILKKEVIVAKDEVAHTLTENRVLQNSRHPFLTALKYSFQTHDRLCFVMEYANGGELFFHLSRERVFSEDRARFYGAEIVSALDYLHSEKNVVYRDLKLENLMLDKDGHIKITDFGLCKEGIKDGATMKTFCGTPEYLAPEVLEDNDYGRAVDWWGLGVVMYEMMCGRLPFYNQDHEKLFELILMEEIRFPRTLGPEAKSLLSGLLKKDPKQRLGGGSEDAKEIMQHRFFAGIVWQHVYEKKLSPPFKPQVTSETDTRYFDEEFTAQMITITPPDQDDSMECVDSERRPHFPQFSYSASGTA
In words: Akt1 kinase assay, Luciferase-Coupled Chemiluminescent Kinase assay (LCCA). As to conditions: 1 μM ATP, 1.3 nM Akt1; read-out: Akt-1 inhibition IC50. The essentials: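 Baculovirus-expressed PDK1-activated Akt1 kinase domain (R144-A480), 1.3 nM, with 5 μM crosstide and 1 μM ATP in Tris pH 7.5 with MgCl2/MnCl2, 3 h at ambient temperature. Remaining ATP read by luciferase-luciferin chemiluminescence; 10-point IC50 from four-parameter fit.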

Test [2] has as its target T2, human p70S6 kinase (p70S6K, kinase domain residues 1-421, T412E mutation) (Homo sapiens, UniProt P23443, T412E).
T2 construct: human p70S6 kinase domainresidues 1-421, containing a T412E mutation; made in house
As to the kind of experiment: p70S6 kinase assay, Luciferase-Coupled Chemiluminescent Kinase assay (LCCA). As to conditions: 5 μM ATP, 12 nM p70S6K; read-out: p70S6K inhibition IC50. The essentials: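 Baculovirus-expressed kinase domain (12 nM) reacted 2 h at ambient temperature with 5 μM ATP and 5 μM RRRLSSLRA peptide. Buffer was Tris pH 7.5 with MgCl2, MnCl2, DTT and Triton X-100. Remaining ATP was read by luciferase-luciferin chemiluminescence. IC50 came from 10-point dose-response with a four-parameter Hill fit.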

Test [3] addresses T3, human Akt2 kinase (kinase domain residues K146-R480) (Homo sapiens, UniProt P31751).
T3 construct: human Akt2 kinase domain residues K146-R480; made in house
As to the kind of experiment: Akt2 kinase assay, Luciferase-Coupled Chemiluminescent Kinase assay (LCCA). Conditions: 2 μM ATP, 10 nM Akt2; read-out: Akt-2 inhibition IC50. As for the experimental part:
Kinase activity and compound inhibition are investigated using one or more of the three assay formats described below. The ATP concentrations for each assay are selected to be close to the Michaelis-Menten constant (KM) for each individual kinase. Dose-response experiments are performed at 10 different inhibitor concentrations in a 384-well plate format. The data are fitted to four-parameter equation (2) below; where Y is the observed signal, X is the inhibitor concentration, Min is the background signal in the absence of enzyme (0% enzyme activity), Max is the signal in the absence of inhibitor (100% enzyme activity), IC50 is the inhibitor concentration at 50% enzyme inhibition and H represents the empirical Hill's slope to measure the cooperativity. Typically H is close to unity. Y=Min+(Max−Min)/(1+(X/IC50)^H) Equation (2) p70S6 Kinase Assay
Biochemical activity of Akt2 kinase was assessed using a Luciferase-Coupled Chemiluminescent Kinase assay (LCCA) format. Kinase activity was measured as the percent ATP remaining following the kinase reaction. Remaining ATP was detected by luciferase-luciferin-coupled chemiluminescence. Specifically, the reaction was initiated by mixing test compounds, 2 μM ATP, 5 μM crosstide peptide and 10 nM Akt2 (baculovirus expressed human Akt2 kinase domain residues K146-R480) in a 20 uL assay buffer (20 mM Tris-HCL pH 7.5, 10 mM MgCl2, 0.03% Triton X-100, 1 mM DTT, 3 mM MnCl2). The mixture is incubated at ambient temperature for 2 hours after which 20 μL luciferase-luciferin mix is added and the chemiluminescent signal read using a Wallac Victor2 reader. The luciferase-luciferin mix consists of 50 mM HEPES, pH 7.8, 8.5 μg/mL oxalic acid (pH 7.8), 5 (or 50) mM DTT, 0.4% Triton X-100, 0.25 mg/mL coenzyme A, 63 uM AMP, 28 μg/mL luciferin and 40,000 units/mL luciferase.

Each structure is given as a SMILES string.

T2 sequence (P23443 1-421 T412E): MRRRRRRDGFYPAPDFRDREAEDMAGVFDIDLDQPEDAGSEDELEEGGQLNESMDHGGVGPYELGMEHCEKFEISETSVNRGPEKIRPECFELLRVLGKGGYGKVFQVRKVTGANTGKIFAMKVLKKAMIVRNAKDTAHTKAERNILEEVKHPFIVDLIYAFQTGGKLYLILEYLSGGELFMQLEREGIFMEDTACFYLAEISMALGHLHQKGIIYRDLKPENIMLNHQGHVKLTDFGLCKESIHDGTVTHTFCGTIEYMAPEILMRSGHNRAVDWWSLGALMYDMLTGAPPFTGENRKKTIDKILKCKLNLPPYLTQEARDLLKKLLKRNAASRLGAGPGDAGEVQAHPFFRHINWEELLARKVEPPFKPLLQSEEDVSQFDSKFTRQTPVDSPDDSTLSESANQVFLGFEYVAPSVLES
T3 sequence (P31751 146-480): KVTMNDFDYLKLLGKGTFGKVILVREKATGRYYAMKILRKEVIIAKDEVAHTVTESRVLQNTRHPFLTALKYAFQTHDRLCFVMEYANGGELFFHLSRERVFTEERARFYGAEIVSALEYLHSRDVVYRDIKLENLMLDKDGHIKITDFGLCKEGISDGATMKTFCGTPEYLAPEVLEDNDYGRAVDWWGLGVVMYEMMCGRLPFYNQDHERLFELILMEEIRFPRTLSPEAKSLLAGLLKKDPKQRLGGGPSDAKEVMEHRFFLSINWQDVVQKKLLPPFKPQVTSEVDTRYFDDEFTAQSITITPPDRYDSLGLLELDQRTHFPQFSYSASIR

For `Clc1ccc(-c2ccc(CN3CCN(c4ncnc5[nH]nc(Br)c45)CC3)o2)cc1` [Entry 64, 3-bromo-4-(4-{[5-(4-chlorophenyl)furan-2-yl]methyl}piperazin-1-yl)-1H-pyrazolo[3,4-d]pyrimidine], the figures for the IC50 in test [1], in test [2] and in test [3] were over 2 µM, 0.5 to 2 µM and over 2 µM, respectively.
As to `O=C(c1ccco1)N1CCN(c2ncnc3[nH]nc(Br)c23)CC1` [Entry 66, 3-bromo-4-[4-(furan-2-ylcarbonyl)piperazin-1-yl]-1H-pyrazolo[3,4-d]pyrimidine], the IC50 (in general, the concentration needed to halve the response being measured) in test [1] is over 2 µM; in test [2], 0.5 to 2 µM; in test [3], over 2 µM.
For the compound `O=C(c1ccc2cc[nH]c2c1)N1CCN(c2ncnc3[nH]nc(Br)c23)CC1` [Entry 67, 3-bromo-4-[4-(1H-indol-6-ylcarbonyl)piperazin-1-yl]-1H-pyrazolo[3,4-d]pyrimidine], the IC50 was over 2 µM in test [1], 0.5 to 2 µM in test [2] and over 2 µM in test [3].
With `Brc1n[nH]c2ncnc(N3CCN(CCc4cccs4)CC3)c12` [Entry 68, 3-bromo-4-{4-[2-(2-thienyl)ethyl]piperazin-1-yl}-1H-pyrazolo[3,4-d]pyrimidine], the IC50 in test [1] was over 2 µM; in test [2] it was 0.5 to 2 µM; in test [3], over 2 µM.
As for `Brc1n[nH]c2ncnc(N3CCN(CCCN4CCCC4)CC3)c12` [Entry 69, 3-bromo-4-[4-(3-pyrrolidin-1-ylpropyl)piperazin-1-yl]-1H-pyrazolo[3,4-d]pyrimidine], the IC50 in test [1] is over 2 µM; in test [2], 0.5 to 2 µM; in test [3], over 2 µM.
In the case of `Brc1n[nH]c2ncnc(N3CCN(CC4CCCCC4)CC3)c12` [Entry 70, 3-bromo-4-[4-(cyclohexylmethyl)piperazin-1-yl]-1H-pyrazolo[3,4-d]pyrimidine], the values for the IC50 in test [1], in test [2] and in test [3] were over 2 µM, 0.5 to 2 µM and over 2 µM, respectively.
With `Clc1c2ccccc2c(CN2CCN(c3ncnc4[nH]nc(Br)c34)CC2)c2ccccc12` [Entry 71, 3-bromo-4-{4-[(10-chloroanthracen-9-yl)methyl]piperazin-1-yl}-1H-pyrazolo[3,4-d]pyrimidine], the IC50 was over 2 µM in test [1], 0.5 to 2 µM in test [2] and over 2 µM in test [3].
As to `CCC(C)N1CCN(c2ncnc3[nH]nc(Br)c23)CC1` (stereo not drawn) [Entry 72, 3-bromo-4-[4-(1-methylpropyl)piperazin-1-yl]-1H-pyrazolo[3,4-d]pyrimidine], the IC50 was over 2 µM in test [1], 0.5 to 2 µM in test [2] and over 2 µM in test [3].
Take `COc1cc(OC)nc(CN2CCN(c3ncnc4[nH]nc(Br)c34)CC2)n1` [Entry 73, 4-(4-{[4,6-bis(methyloxy)pyrimidin-2-yl]methyl}piperazin-1-yl)-3-bromo-1H-pyrazolo[3,4-d]pyrimidine]: the half-maximal inhibitory concentration (IC50) is over 2 µM in test [1], 0.5 to 2 µM in test [2] and over 2 µM in test [3].
Take `COCCN1CCN(c2ncnc3[nH]nc(Br)c23)CC1` [Entry 74, 3-bromo-4-{4-[2-(methyloxy)ethyl]piperazin-1-yl}-1H-pyrazolo[3,4-d]pyrimidine]: the values for the IC50 in test [1], in test [2] and in test [3] were over 2 µM, 0.5 to 2 µM and over 2 µM, respectively.
Take `O=C(CN1CCN(c2ncnc3[nH]nc(Br)c23)CC1)N1CCOCC1` [Entry 75, 3-bromo-4-[4-(2-morpholin-4-yl-2-oxoethyl)piperazin-1-yl]-1H-pyrazolo[3,4-d]pyrimidine]: the IC50 in test [1], in test [2] and in test [3] was over 2 µM in each case.
Consider `COCCCN1CCN(c2ncnc3[nH]nc(Br)c23)CC1` [Entry 76, 3-bromo-4-{4-[3-(methyloxy)propyl]piperazin-1-yl}-1H-pyrazolo[3,4-d]pyrimidine], for which the IC50 in test [1], in test [2] and in test [3] was over 2 µM throughout.
As for `COc1cc(OC)nc(C(c2ccccc2)N2CCN(c3ncnc4[nH]nc(Br)c34)CC2)n1` (stereo not drawn) [Entry 77, 4-{4-[[4,6-bis(methyloxy)pyrimidin-2-yl](phenyl)methyl]piperazin-1-yl}-3-bromo-1H-pyrazolo[3,4-d]pyrimidine], the IC50 in test [1], in test [2] and in test [3] was over 2 µM throughout.
As to `Brc1n[nH]c2ncnc(N3CCN(C4CCCCc5ccccc54)CC3)c12` (stereo not drawn) [Entry 78, 3-bromo-4-[4-(6,7,8,9-tetrahydro-5H-benzocyclohepten-5-yl)piperazin-1-yl]-1H-pyrazolo[3,4-d]pyrimidine], the 50% inhibitory concentration (IC50) in test [1], in test [2] and in test [3] was over 2 µM throughout.
In the case of `Brc1n[nH]c2ncnc(N3CCN(Cc4ccc(OCc5ccccc5)cc4)CC3)c12` [Entry 79, 3-bromo-4-[4-({4-[(phenylmethyl)oxy]phenyl}methyl)piperazin-1-yl]-1H-pyrazolo[3,4-d]pyrimidine], the IC50 in test [1], in test [2] and in test [3] was over 2 µM throughout.
On to `CN(C)C(=O)CN1CCN(c2ncnc3[nH]nc(Br)c23)CC1` [Entry 85, 2-[4-(3-bromo-1H-pyrazolo[3,4-d]pyrimidin-4-yl)piperazin-1-yl]-N,N-dimethylacetamide], for which the IC50 in test [1], in test [2] and in test [3] was over 2 µM in each case.
